From publication PMC3196276 (2011)

Legend:
[1] = tested on: U25C (3WJ site mutant) (RNA, riboswitch) GGAGAGUAGAUGAUUCGCGUUAAGCGUGUGUGAAUGGGAUGUCGUCACACAACGAAGCGAGAGCGCGGUGAAUCAUUGCAUCCGCUCCA; assay: ITC; conditions: 6 mM MgCl2, 100 mM NaCl, 10 mM KCl; 10 mM HEPES pH 8.0, 1 mM DTT, 25 °C
[2] = tested on: U7C (PK site mutant) (RNA, riboswitch) GGAGAGCAGAUGAUUCGCGUUAAGUGUGUGUGAAUGGGAUGUCGUCACACAACGAAGCGAGAGCGCGGUGAAUCAUUGCAUCCGCUCCA; assay: ITC; conditions: 6 mM MgCl2, 100 mM NaCl, 10 mM KCl; 10 mM HEPES pH 8.0, 1 mM DTT, 25 °C
[3] = tested on: Smu wild type (wt) THF riboswitch aptamer, crystallization sequence (RNA, riboswitch) GGAGAGUAGAUGAUUCGCGUUAAGUGUGUGUGAAUGGGAUGUCGUCACACAACGAAGCGAGAGCGCGGUGAAUCAUUGCAUCCGCUCCA; conditions: apparent; ligand not given, THF from context

| KD [1] [µM] | KD [2] [µM] | KD,app [3] [µM] | SMILES |
| --- | --- | --- | --- |
| 18 ± 1 | 23 ± 2 | – | Nc1nc2c(c(=O)[nH]1)N(C=O)[C@@H](CNc1ccc(C(=O)N[C@@H](CCC(=O)O)C(=O)O)cc1)CN2 |
| – | – | 18 ± 1 | Nc1nc2c(c(=O)[nH]1)N[C@@H](CNc1ccc(C(=O)N[C@@H](CCC(=O)O)C(=O)O)cc1)CN2 |
